Measured values published in patent publication US8445444B2, “Compositions and methods for diagnosing, treating, and preventing prostate conditions” (Phigenix, Inc., priority 2007, dated 2013).
“Also recorded” adds a separate entry of the source.

What was measured:
[1] = tested on: DU145; test: Western analysis; type: cell-based, human; conditions: for PAX2 expression / phospho-PAX2 protein levels / phospho-JNK protein levels: DU145; for PAX2 expression / phospho-PAX2 protein levels: 5 uM Los, 25 uM U0126, 20 uM PD98059, 250 μM AICAR
Protocol: . Following a 15 minute incubation period at 4° C. on an orbital shaker, cell lysate were then collected and centrifuged for 10 minutes at 12000×g to pellet cellular debris. The protein-containing supernatant were then collected and quantitated. Next, 25 μg protein extract was loaded onto an 8-16% gradient SDS-PAGE (Novex). Following electrophoresis, proteins were transferred to PVDF membranes, and then blocked with 5% nonfat dry milk in TTBS (0.05% Tween 20 and 100 mM Tris-Cl) for 1 hour. Blots were then probed with rabbit anti-PAX2 primary antibody (Zymed, San Francisco, Calif.) at a 1:2000 dilution. After washing, the membranes were incubated with anti-rabbit antibody conjugated to horseradish peroxidase (HRP) (dilution 1:5000; Sigma), and signal detection was visualized using chemilluminescence reagents (Pierce) on an Alpha Innotech Fluorchem 8900. As a control, blots were stripped and reprobed with mouse anti-β-actin primary antibody (1:5000; Sigma-Aldrich) and HRP-conjugated anti-mouse secondary antibody (1:5000; Sigma-Aldrich) and signal detection was again visualized.
Following a 15-minute incubation period at 4° C. on an orbital shaker, cell lysates were collected and centrifuged for 10 minutes at 12000×g to pellet cellular debris. The protein-containing supernatant were then collected and quantitated. Next, 25 ug protein extract was loaded onto an 8-16% gradient SDS-PAGE (Novex). Following electrophoresis, proteins were transferred to PVDF membranes, and then blocked with 5% nonfat dry milk in TTBS (0.05% Tween 20 and 100 mM Tris-Cl) for 1 hour. Blots were then probed with primary antibody (anti-PAX2, -phospho-PAX2, -JNK, -phospho-JNK, -ERK1/2, or -phospho-ERK1/2) (Zymed, San Francisco, Calif.) at 1:1000-2000 dilutions. After washing, the membranes were incubated with anti-rabbit antibody conjugated to horseradish peroxidase (HRP) (dilution 1:5000; Sigma), and signal detection was visualized using chemilluminescence reagents (Pierce) on an Alpha Innotech Fluorchem 8900. As a control, blots were stripped and re-probed with mouse anti-β-actin primary antibody (1:5000; Sigma-Aldrich) and HRP-conjugated anti-mouse secondary antibody (1:5000; Sigma-Aldrich), and signal detection was again visualized.
. Following a 15-min incubation period at 4° C. on an orbital shaker, cell lysates were collected and centrifuged for 10 min at 12,000 g to pellet cellular debris. The protein-containing supernatant were then collected and quantitated. Next, 25 μg protein extract was loaded onto an 8-16% gradient SDS-PAGE (Novex). Following electrophoresis, proteins were transferred to PVDF membranes, and then blocked with 5% non-fat dry milk in TTBS (0.05% Tween 20 and 100 mM Tris-Cl) for 1 h. Blots were then probed with rabbit anti-PAX2 primary antibody (Zymed, San Francisco, Calif.) at a 1:1000 dilution. After washing, the membranes were incubated with anti-rabbit antibody conjugated to horseradish peroxidase (HRP) (dilution 1:5000; Sigma), and signal detection was visualized using chemiluminescence reagents (Pierce) on an Alpha Innotech Fluorchem 8900. As a control, blots were stripped and reprobed with mouse anti-β-actin primary antibody (1:5000; Sigma-Aldrich) and HRP-conjugated anti-mouse secondary antibody (1:5000; Sigma-Aldrich), and signal detection was again visualized.

[2] = tested on: DU145; test: Western analysis; type: cell-based, human; conditions: 5 uM Los, 25 uM U0126, 20 uM PD98059, 250 μM AICAR
[3] = tested on: DU145; test: Quantitative RT-PCR of gene expression; type: cell-based, human; conditions: for PAX2 message levels: DU145, Losartan (FIG. 20A)
Protocol: Total RNA was isolated using the SV Total RNA Isolation System (Promega). Briefly, approximately 1×10^6 cells were harvested by trypsinizing, and rinsed in PBS. Cells were then lysed and total RNA was isolated by centrifugation through spin columns. Total RNA (0.5 μg per reaction) was reverse transcribed into cDNA utilizing Oligo (dT) 15 primer (Promega) and AMV Reverse Transcriptase II enzyme (500 units per reaction; Promega) for first strand synthesis and Tfl DNA Polymerase for second strand synthesis (500 units per reaction; Promega) as per the manufacturers' protocol, with identical control samples treated without RT enzyme. Typically, 50 pg of each cDNA was used per ensuing PCR reaction Two-step QRT-PCR was performed on cDNA generated using the MultiScribe Reverse Transcripatase from the TaqMan Reverse Transcription System and the SYBR Green PCR Master Mix (PE Biosystems). […] Reactions were performed in MicroAmp Optical 96-well Reaction Plate (PE Biosystems). Forty cycles of PCR were performed under standard conditions using an annealing temperature of 60° C. Quantification was determined by the cycle number where exponential amplification began (threshold value) and averaged from the values obtained from the triplicate repeats. There was an inverse relationship between message level and threshold value. In addition, GAPDH was used as a housekeeping gene to normalize the initial content of total cDNA. […] All reactions were carried out in triplicate.
Forty cycles of PCR were performed under standard conditions using an annealing temperature of 56° C. In addition, GAPDH was amplified as a housekeeping gene to normalize the initial content of total cDNA. […] All reactions were run three times in triplicate.

[4] = tested on: DU145; test: [3H] thymidine incorporation proliferation; type: cell-based, human; conditions: for effect of AngII on proliferation after Los pre-treatment: DU145, Los 30 min prior to AngII; for increase in proliferation: 72 hours
Protocol: Reagents and Treatments: […] Thymidine Incorporation: Proliferation of cells was determined by [3H] thymidine […] ([3H] TdR) incorporation into DNA. 0.5×10^6 cells/well of suspension DU145 cells were plated in their appropriate media. Cells were incubated for 72 h with or without the presence of AngII at the indicated concentrations. Cells were exposed to 37 kBq/ml [methyl-3H] thymidine in the same medium for 6 h. The adherent cells were fixed by 5% trichloroacetic acid and lysed in SDS/NaOH lysis buffer overnight. Radioactivity was measured by Beckman LS3801 liquid scintillation counter (Canada). Suspension cell culture was harvested by cell harvester (Packard instrument Co., Meriden, Conn.), and radioactivity was measured by 1450 microbeta liquid scintillation counter (PerkinElmer Life Sciences).

[5] = tested on: human prostate cancer cells; conditions: xenograft models of human prostate cancer cells; cited from earlier work
[6] = tested on: HPrEC; test: Quantitative RT-PCR of gene expression; type: cell-based, human; conditions: for decrease in DEFB1 expression compared to untreated hPrEC / increase in PAX2 expression compared to untreated hPrEC: 10 uM AngII; for PAX2 expression as % of PAX2 levels in PC3: AngII
Protocol: RNA Isolation and Quantitative RT-PCR: In order to verify changes in DEFB1 expression levels RNA was collected after 4 days of PAX2 siRNA treatment. Briefly, total RNA was isolated using the SV Total RNA Isolation System (Promega, Madison, Wis.) from approximately 1×10^6 cells harvested by trypsinizing. Here, cells were lysed and total RNA was isolated by centrifugation through spin columns. Total RNA (0.5 μg per reaction) from both sources was reverse transcribed into cDNA utilizing random primers (Promega). AMV Reverse Transcriptase II enzyme (500 units per reaction; Promega) was used for first strand synthesis and Tfl DNA Polymerase for second strand synthesis (500 units per reaction; Promega) as per the manufacturer's protocol. In each case, 50 pg of cDNA was used per ensuing PCR reaction. Two-step QRT-PCR was performed on cDNA generated using the MultiScribe Reverse Transcripatase from the TaqMan Reverse Transcription System and the SYBR Green PCR Master Mix (Applied Biosystems).
The primer pair for DEFB1 was generated from the published DEFB1 sequence (Accession No. U50930). Forty cycles of PCR were performed under standard conditions using an annealing temperature of 56° C. In addition, GAPDH was amplified as a housekeeping gene to normalize the initial content of total cDNA. DEFB1 expression was calculated as the relative expression ratio between DEFB1 and GAPDH and was compared in cells lines before and after siRNA knock-down of PAX2 expression. All reactions were run three times in triplicate.
QRT-PCR Analysis: Quantitative real-time RT-PCR was performed to verify changes in gene expression following PAX2 knockdown in PC3 and DU145 prostate cancer cell lines and the hPrEC normal prostate epithelial cells. Approximately 1×10^6 cells were harvested by trypsinizing and the cells were rinsed in PBS. Cells were then lysed and total RNA was isolated by centrifugation through spin columns using the SV Total RNA Isolation System (Promega). cDNA was generated (0.5 μg per reaction) by reverse transcription by Oligo (dT) 15 primer (Promega) and AMV Reverse Transcriptase II enzyme (500 units per reaction; Promega) for first strand synthesis and Tfl DNA Polymerase for second strand synthesis (500 units per reaction; Promega) as per the manufacturer's protocol. Typically, 50 pg of each cDNA was used per ensuing PCR reaction. Two-step QRT-PCR was performed on cDNA generated using the MultiScribe Reverse Transcripatase from the TaqMan Reverse Transcription System and the SYBR Green PCR Master Mix (PE Biosystems). Reactions were performed in MicroAmp Optical 96-well Reaction Plate (PE Biosystems). Forty cycles of PCR were performed under standard conditions using an annealing temperature of 60° C. Quantification was determined by the cycle number where exponential amplification began (threshold value) and averaged from the values obtained from the triplicate repeats. There was an inverse relationship between message level and threshold value. In addition, GAPDH was used as a housekeeping gene to normalize the initial content of total cDNA. Relative expression was calculated as the ratio between each genes and GAPDH. All reactions were carried out in triplicate.
RNA isolation and quantitative RT-PCR: QRT-PCR was performed as previously described (Gibson et al., 2007). Briefly, total RNA (0.5 μg per reaction) from tissue sections were reverse transcribed into cDNA utilizing random primers (Promega). Two-step QRT-PCR was performed on cDNA generated using the MultiScribe Reverse Transcriptase from the TaqMan Reverse Transcription System and the SYBR Green PCR Master Mix (Applied Biosystems, Foster City, Calif.). The primer pairs for hBD-1 and c-MYC were generated from the published sequences (Table 7). Forty cycles of PCR were performed under standard conditions using an annealing temperature of 56.4° C. for hBD-1 and c-MYC and 55° C. for PAX2. […]

[7] = AngII 72 and 96 hours (FIG. 25 legend)

NC(=O)c1ncn([C@@H]2O[C@H](CO)[C@@H](O)[C@H]2O)c1N [AICAR, 5-Aminoimidazole-4-carboxamide-1-β-4-ribofuranoside]
PAX2 expression [1]: suppresses PAX2 protein expression; also recorded: suppressed PAX2 expression; also recorded: suppression of PAX2 pression expression | phospho-PAX2 protein levels [1]: suppression | phospho-STAT3 protein levels [2]: also suppressed

N#CC(=C(/N)Sc1ccccc1N)/C(C#N)=C(\N)Sc1ccccc1N [Drug U0126]
phospho-JNK protein levels [1]: did not decrease | PAX2 expression [1]: significant reduction of PAX2 expression | phospho-PAX2 protein levels [1]: significant decrease or suppression | phospho-STAT3 protein levels [2]: reduced phospho-STAT3 protein levels

CCCCc1nc(Cl)c(CO)n1Cc1ccc(-c2ccccc2-c2nn[nH]n2)cc1 [Losartan]
PAX2 expression compared to untreated control ([3]; DU145, 5 uM Los, 72 hours): 50% | PAX2 message levels [3]: decreased by at least half | PAX2 message levels ([3]; listed as Los): significantly reduced PAX2 expression | ERK protein levels ([1]; DU145, 5 uM Los): no effect | phospho-ERK ([1]; DU145, 5 uM Los): suppresses phosphor-ERK 1/2 | phospho-ERK ([1]; DU145, 5 uM Los, listed as Los): reduced the amount of phospho-ERK | PAX2 expression [1]: suppresses | phospho-PAX2 protein levels [1]: significant decrease or suppression | PAX2 expression ([1]; listed as Los): significant reduction of PAX2 expression | decrease in proliferation ([4]; DU145, 5 μM Losartan): 50% | effect of AngII on proliferation after Los pre-treatment [4]: blocked the effect of AngII on proliferation | effect of AngII on proliferation after Los pre-treatment ([4]; listed as Los): suppressed the effect of AngII on proliferation | phospho-STAT3 protein levels [2]: suppresses phospho-STAT3 protein expression | phospho-STAT3 protein levels ([2]; listed as Los): reduced phospho-STAT3 protein levels | tumor growth and vascularization [5]: reduce tumor growth and vascularization

COc1cccc(-c2cc(=O)c3ccccc3o2)c1N [PD98059]
PAX2 expression [1]: decreased PAX2 | phospho-PAX2 protein levels [1]: significant decrease or suppression | phospho-STAT3 protein levels [2]: reduced phospho-STAT3 protein levels

Cc1cc(Cn2cnc3c2C[C@@H](C(=O)O)N(C(=O)C(c2ccccc2)c2ccccc2)C3)ccc1N(C)C [PD123319]
PAX2 expression increase ([3]; DU145, 5 uM PD123319, 48 hours): 7 fold | PAX2 expression increase ([3]; DU145, 5 uM PD123319, 96 hours): 8 fold

AngII: Angiotensin II, major regulator of blood pressure, potent mitogen, binds AT1R and AT2R (DRVYIHPF)
PAX2 expression increase ([3]; DU145, 5 μM AngII, 72 hours (FIG. 21 legend)): 2 fold | PAX2 expression increase ([3]; DU145, 10 μM AngII, 72 hours (FIG. 21 legend)): > 3 fold | decrease in DEFB1 expression compared to untreated hPrEC ([6]; 72 hours): 35% | increase in PAX2 expression compared to untreated hPrEC ([6]; 72 hours): 66% | decrease in DEFB1 expression compared to untreated hPrEC ([6]; 96 hours): 50% | increase in PAX2 expression compared to untreated hPrEC ([6]; 96 hours): 79% | DEFB1 expression [6, 7]: reduced significantly | PAX2 expression [6, 7]: dramatic increases in PAX2 to levels similar to PC3 prostate cancer cells | PAX2 expression as % of PAX2 levels in PC3 ([6]; 72 hours): 77% | PAX2 expression as % of PAX2 levels in PC3 ([6]; 96 hours): 89% | phospho-JNK protein levels [1]: increased phosphor-JNK protein levels | PAX2 expression over time ([1]; DU145, AngII, 30 min to 48 hour (FIG. 19)): increased as early as 4 hours and persisted until 48 hours; also recorded: progressively increased over time | increase in proliferation ([4]; DU145, 5 μM AngII): 2 fold | increase in proliferation ([4]; DU145, 10 μM AngII): > 3 fold | increase in proliferation rate ([4]; DU145, AngII 5 or 10 uM): two- to three-fold increase
